Results on two sequences are retold here after PMC10706425, “Enhancing the Antimicrobial Properties of Peptides through Cell-Penetrating Peptide Conjugation: A Comprehensive Assessment” (International Journal of Molecular Sciences, 2023).

Where two headings read alike, the source gives them in different places.

Assay [1] has as its system bacteria. The conditions noted are these: cited from earlier work. The source says:
Generally, the mechanisms by which AMPs act against bacteria depend on the properties of the bacterial cell wall. Gram-positive bacteria have a thick peptidoglycan layer, while Gram-negative bacteria have an outer membrane and a thinner peptidoglycan layer, which can impact the effectiveness of different antimicrobial strategies. […] If the peptide contained only the Antp fragment, then, in general, its antimicrobial activity was lower com ...

Another assay concerns S. aureus (209P strain). Description: Antibacterial activity in liquid medium. Type of assay: cell-based, Staphylococcus aureus. The conditions noted are these: 209P strain; Mueller–Hinton broth, 37 °C, 2% DMSO. The source says:
(§1) Two S. aureus strains were used: a susceptible strain 209P and a clinical isolate strain 129B (resistant to antibiotics: benzylpenicillin, clindamycin, erythromycin, oxacillin, sulfamethoxazole, and vancomycin). Two MRSA strains were included: a susceptible strain ATCC 43300 (resistant to antibiotics: methicillin, oxacillin (beta-lactam antibiotics), ampicillin (https://www.atcc.org/products/43300 (accessed on 11 November 2023)) and a clinical isolate strain SA 180 (resistant to antibiotics: benzylpenicillin and oxacillin (beta-lactam antibiotics), ciprofloxacin, clindamycin, erythromycin, levomycetin, sulfamethoxazole, and vancomycin). One B. cereus was used: a susceptible strain, IP 5832. Two P. aeruginosa strains were included: a susceptible strain, ATCC 28753, and a resistant strain, 2943. Two E. coli strains were used: a susceptible strain, K12, and a susceptible strain, MG1655.
(§2) Determination of the growth for the bacteria S. aureus strain 209P, MRSA strain ATCC 43300, B. cereus strain IP 5832, P. aeruginosa strain ATCC 28753, and E. coli strain K12 was performed using Mueller–Hinton Broth (MHB) (Sigma-Aldrich, St. Louis, MO, USA). Bacteria of S. aureus (strain 129B) and MRSA (strain SA 180-F) were grown on the brain-heart infusion (BHI) medium, and bacteria of P. aeruginosa (strain 2943) and E. coli (strain MG1655) were grown on the LB medium. The preparation and co-incubation of peptides with bacteria were carried out as described previously. The samples were grown at 37 °C.

The test system of the next assay is MRSA (ATCC 43300 strain). Description: Antibacterial activity in liquid medium. The class given is cell-based, Methicillin-resistant Staphylococcus aureus. The settings on record: ATCC 43300 strain; Mueller–Hinton broth, 37 °C, 2% DMSO.
Source text: as §1, §2

For the next assay, the system named is E. coli (K12 strain). Kind of assay: Antibacterial activity in liquid medium. Type of assay: cell-based, Escherichia coli. The conditions noted are these: K12 strain; Mueller–Hinton broth, 37 °C, 2% DMSO.
Source text: as §1, §2

Assay [2] relates to bacteria. Kind of assay: Antibacterial activity of amyloidogenic fragments alone (bacteria not given). Type of assay: cell-based. The settings on record: Table 2 and Table S1.

Regarding “VTDFGVFVEI [Amyloidogenic fragment from S1 T. thermophilus]”, in the assay with bacteria [1], the “Concentration with antibacterial activity, amyloidogenic fragment alone” value is 913 µM.
For the sequence ITDFGIFIGL [I10L^P], the “Peptide Activity in Liquid Medium after 15 h of Incubation (Gentamicin as Positive Control)” value with S. aureus (209P strain), with MRSA (ATCC 43300 strain) and in the assay with E. coli (K12 strain) was 913 µM each time. Also, the “Concentration with antibacterial activity, amyloidogenic fragment alone” value with bacteria [2] is on record as 913 µM.
